Read-outs that look alike come from different tables or passages of the source.
Columns and labels:
Format in all cases: biochemical
FGFR1 = target: T1, FGFR1 (Homo sapiens, UniProt P11362); assay: FGFR1 kinase activity inhibition assay (LanthaScreen TR-FRET)
T1 construct: cytoplasmic domain [398-822 (terminal) amino acids]; purchased Carna 08-133
Outline: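 Emission ratio 520 nm/495 nm by TR-FRET after stopping reaction with 10 mM EDTA and 60 min incubation at 22°C. Inhibition normalized between no-enzyme (min) and DMSO (max) controls, then fitted to a four-parameter curve (Top, Bottom, HillSlope).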

FGFR4 = target: T2, FGFR4 (Homo sapiens, UniProt P22455); assay: FGFR4 kinase activity inhibition assay (LanthaScreen TR-FRET)
T2 construct: FGFR4's cytoplasmic domain [460-802 (terminal) amino acids]; purchased Carna 08-136
Procedure: (§1) FGFR1 kinase activity was measured using Invitrogen LanthaScreen™ assay technology, which utilized fluorescently-labeled peptides and terbium-labeled antibodies to directly measure an amount of the phosphorylated substrate through time-resolved fluorescence energy transfer (TR-FRET). • ① The test compounds were diluted: starting from a concentration of 1 µM, with a buffer solution in a three-fold serial dilution, the buffer solution being composed of 50 mM HEPES, 10 mM MgCl2, 0.01% TritonX-100, 0.01% BSA, 4 mM DTT (pH 7.5), and 1% DMSO; • ② 0.01 nM recombinant human GST fusion protein FGFR1's cytoplasmic domain [398-822 (terminal) amino acids] (Carna: 08-133) was formulated into a 2 × solution, mixed well with the test compounds, and incubated at 23°C for 10 minutes; • ③ 28 nM Fluorescein-Poly GT peptide substrate (Life Technologies: PV3611) and 28 µM ATP were formulated into a 2 × solution, mixed well with the test compounds and enzyme in ②, and incubated at 23°C for 30 minutes; • ④ 10 µL of 2nM Tb-PY20 antibody (Life Technologies: PV3552) and 10 mM EDTA were added to quench the kinase reaction, and incubated at 22°C for 60 minutes. • ⑤ The reaction was measured using a PerkinElmer EnVision multimode plate reader through TR-FRET dual wavelength detection. • 1. The RFU values were copied from the Envision program. • 2. The ratio of RFU 520nm/RFU 495nm was calculated. • 3. The value of the ratio was converted to a percentage inhibition value. % Inhibition = (max-data)/(max-min) × 100 [formula]
(§2) "Min" represents the ratio of the control without enzyme, "max" represents the ratio of the DMSO control, and "data" represents the ratio of the compounds in wells with different concentrations.
(§3) "Top" refers to the maximum response, "Bottom" refers to the minimum response, and "HillSlope" refers to the slope of the curve.
(§4) According to the same method as that in the FGFR1 kinase activity inhibition assay, the inhibitory activities against FGFR2, FGFR3 and FGFR4 were tested using FGFR2's cytoplasmic domain [399-821 (terminal) amino acids] (Carna: 08-134), FGFR3's cytoplasmic domain [436-806 (terminal) amino acids] (Carna: 08-135) and FGFR4's cytoplasmic domain [460-802 (terminal) amino acids] (Carna: 08-136), respectively. Table 1 reports the kinase activity inhibition results and selectivity towards FGFR3 of each compound.

FGFR2 = target: T3, FGFR2 (Homo sapiens, UniProt P21802); assay: FGFR2 kinase activity inhibition assay (LanthaScreen TR-FRET)
T3 construct: FGFR2's cytoplasmic domain [399-821 (terminal) amino acids]; purchased Carna 08-134
Procedure: as §1, §2, §3
as §4, with “Table 1 reports the kinase activity inhibition results and selectivity towards FGFR3 of each compound.” left out

FGFR3 = target: T4, FGFR3 (Homo sapiens, UniProt P22607); assay: FGFR3 kinase activity inhibition assay (LanthaScreen TR-FRET); conditions: for Selectivity (X) FGFR1/FGFR3: ratio of IC50 FGFR1/FGFR3, selectivity towards FGFR3; for Selectivity (X) FGFR2/FGFR3: ratio of IC50 FGFR2/FGFR3, selectivity towards FGFR3; for Selectivity (X) FGFR4/FGFR3: ratio of IC50 FGFR4/FGFR3, selectivity towards FGFR3
T4 construct: FGFR3's cytoplasmic domain [436-806 (terminal) amino acids]; purchased Carna 08-135
Outline: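 Read-out is TR-FRET, with the 520 nm/495 nm emission ratio normalised to DMSO (max) and enzyme-free (min) controls. Enzyme was the FGFR3 cytoplasmic domain, residues 436-806. EDTA (10 mM) stopped the reaction, followed by 60 min at 22 °C before reading.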

[1] = FGFR1 kinase, TR-FRET, read-out: IC50 (nM) FGFR1
[2] = FGFR4 kinase, TR-FRET, read-out: IC50 (nM) FGFR4
[3] = FGFR2 kinase, TR-FRET, read-out: IC50 (nM) FGFR2
[4] = FGFR3 kinase, TR-FRET, read-out: IC50 (nM) FGFR3

T1 sequence (P11362 398-822): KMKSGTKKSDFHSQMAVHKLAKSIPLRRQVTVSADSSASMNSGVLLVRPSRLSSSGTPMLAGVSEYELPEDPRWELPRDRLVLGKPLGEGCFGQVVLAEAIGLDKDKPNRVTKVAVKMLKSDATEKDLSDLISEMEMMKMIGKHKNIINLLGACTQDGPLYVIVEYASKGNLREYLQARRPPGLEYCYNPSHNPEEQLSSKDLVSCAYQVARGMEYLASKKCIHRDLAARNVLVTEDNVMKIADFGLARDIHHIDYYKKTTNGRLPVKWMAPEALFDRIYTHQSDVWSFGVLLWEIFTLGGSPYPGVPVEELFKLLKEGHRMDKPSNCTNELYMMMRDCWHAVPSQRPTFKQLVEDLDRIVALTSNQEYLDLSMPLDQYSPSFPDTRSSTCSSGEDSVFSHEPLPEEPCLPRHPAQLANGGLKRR
T3 sequence (P21802 399-821): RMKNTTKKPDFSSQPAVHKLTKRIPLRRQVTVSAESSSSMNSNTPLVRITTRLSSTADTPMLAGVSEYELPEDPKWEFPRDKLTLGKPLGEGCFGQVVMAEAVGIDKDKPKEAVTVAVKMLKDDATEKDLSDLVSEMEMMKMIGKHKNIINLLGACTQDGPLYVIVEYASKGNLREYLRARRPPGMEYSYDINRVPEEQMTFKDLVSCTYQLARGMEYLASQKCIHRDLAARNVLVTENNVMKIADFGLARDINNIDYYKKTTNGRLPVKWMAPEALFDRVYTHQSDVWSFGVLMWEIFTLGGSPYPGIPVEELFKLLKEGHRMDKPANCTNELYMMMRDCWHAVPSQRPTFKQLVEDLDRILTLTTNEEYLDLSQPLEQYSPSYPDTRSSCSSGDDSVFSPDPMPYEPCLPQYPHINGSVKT
T4 sequence (P22607 436-806): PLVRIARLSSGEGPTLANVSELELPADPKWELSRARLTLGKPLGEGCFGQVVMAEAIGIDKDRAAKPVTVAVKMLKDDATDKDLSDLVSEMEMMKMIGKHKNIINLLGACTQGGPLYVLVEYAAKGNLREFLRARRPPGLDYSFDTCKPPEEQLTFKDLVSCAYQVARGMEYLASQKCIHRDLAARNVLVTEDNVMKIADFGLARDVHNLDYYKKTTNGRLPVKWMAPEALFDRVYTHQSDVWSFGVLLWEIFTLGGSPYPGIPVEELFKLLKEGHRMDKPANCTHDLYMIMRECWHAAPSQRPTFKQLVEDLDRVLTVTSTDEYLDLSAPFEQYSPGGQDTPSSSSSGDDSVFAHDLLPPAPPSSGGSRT
T2 sequence (P22455 460-802): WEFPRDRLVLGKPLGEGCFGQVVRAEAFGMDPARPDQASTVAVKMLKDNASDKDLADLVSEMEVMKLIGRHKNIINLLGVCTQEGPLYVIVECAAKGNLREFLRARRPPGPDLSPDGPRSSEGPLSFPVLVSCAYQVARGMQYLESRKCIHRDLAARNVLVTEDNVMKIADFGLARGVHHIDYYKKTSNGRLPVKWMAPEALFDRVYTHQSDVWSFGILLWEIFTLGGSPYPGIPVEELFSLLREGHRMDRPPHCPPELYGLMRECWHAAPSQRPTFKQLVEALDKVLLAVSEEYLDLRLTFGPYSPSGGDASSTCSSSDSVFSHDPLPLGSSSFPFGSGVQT

| SMILES | IC50 (FGFR1; [1]) | IC50 (FGFR4; [2]) | IC50 (FGFR2; [3]) | IC50 (FGFR3; [4]) | Selectivity (X) FGFR1/FGFR3 (FGFR3) | Selectivity (X) FGFR2/FGFR3 (FGFR3) | Selectivity (X) FGFR4/FGFR3 (FGFR3) | IC50 (FGFR1) | IC50 (FGFR4) | IC50 (FGFR2) | IC50 (FGFR3) |
| --- | --- | --- | --- | --- | --- | --- | --- | --- | --- | --- | --- |
| C[C@@H](Oc1cc(F)c2[nH]nc(-c3cnn(C)c3)c2c1)c1c(Cl)cncc1Cl [Example 5, (R)-5-(1-(3,5-dichloropyridin-4-yl)ethoxy)-7-fluoro-3-(1-methyl-1H-pyrazol-4-yl)-1H-indazole] | 1 to 10 nM | 1 to 10 nM | < 1 nM | < 1 nM | A (A represents 1 ≤ multiple X<20) | A (A represents 1 ≤ multiple X<20) | B (B represents 20 ≤ multiple X<50) | – | – | – | – |
| C[C@@H](Oc1cc(C2CC2)c2[nH]nc(-c3cnn(C)c3)c2c1)c1c(Cl)cncc1Cl [Example 7, (R)-7-cyclopropyl-5-(1-(3,5-dichloropyridin-4-yl)ethoxy)-3-(1-methyl-1H-pyrazol-4-yl)-1H-indazole] | > 100 nM | > 100 nM | 10 to 100 nM | 1 to 10 nM | B (B represents 20 ≤ multiple X<50) | A (A represents 1 ≤ multiple X<20) | B (B represents 20 ≤ multiple X<50) | – | – | – | – |
| C[C@@H](Oc1cc(F)c2[nH]nc(-c3cnn(CCS(C)(=O)=O)c3)c2c1)c1c(Cl)cncc1Cl [Example 11, (R)-5-(1-(3,5-dichloropyridin-4-yl)ethoxy)-7-fluoro-3-(1-(2-(methylsulfonyl)ethyl)-1H-pyrazol-4-yl)-1H-indazole] | 10 to 100 nM | 10 to 100 nM | 1 to 10 nM | 1 to 10 nM | A (A represents 1 ≤ multiple X<20) | A (A represents 1 ≤ multiple X<20) | A (A represents 1 ≤ multiple X<20) | – | – | – | – |
| C[C@@H](Oc1cc(F)c2[nH]nc(-c3cnn(CC4CC4)c3)c2c1)c1c(Cl)cncc1Cl [Example 14, (R)-3-(1-(cyclopropylmethyl)-1H-pyrazol-4-yl)-5-(1-(3,5-dichloropyridin-4-yl)ethoxy)-7-fluoro-1H-indazole] | 10 to 100 nM | 10 to 100 nM | 1 to 10 nM | 1 to 10 nM | A (A represents 1 ≤ multiple X<20) | A (A represents 1 ≤ multiple X<20) | A (A represents 1 ≤ multiple X<20) | – | – | – | – |
| C[C@@H](Oc1cc(F)c2[nH]nc(-c3cnn(CCN(C)C)c3)c2c1)c1c(Cl)cncc1Cl [Example 15, (R)-2-(4-(5-(1-(3,5-dichloropyridin-4-yl)ethoxy)-7-fluoro-1H-indazol-3-yl)-1H-pyrazol-1-yl)-N,N-dimethylethan-1-amine] | 10 to 100 nM | > 100 nM | 1 to 10 nM | 1 to 10 nM | A (A represents 1 ≤ multiple X<20) | A (A represents 1 ≤ multiple X<20) | C (C represents 50 ≤ multiple X<100) | – | – | – | – |
| C[C@@H](Oc1cc(F)c2[nH]nc(-c3cnn(CCCN(C)C)c3)c2c1)c1c(Cl)cncc1Cl [Example 17, (R)-3-(4-(5-(1-(3,5-dichloropyridin-4-yl)ethoxy)-7-fluoro-1H-indazol-3-yl)-1H-pyrazol-1-yl)-N,N-dimethylpropan-1-amine] | 1 to 10 nM | > 100 nM | < 1 nM | < 1 nM | A (A represents 1 ≤ multiple X<20) | A (A represents 1 ≤ multiple X<20) | D (D represents 100 ≤ multiple X) | – | – | – | – |
| C[C@@H](Oc1cc(F)c2[nH]nc(-c3cnn(CCN4CCCCC4)c3)c2c1)c1c(Cl)cncc1Cl [Example 23, (R)-5-(1-(3,5-dichloropyridin-4-yl)ethoxy)-7-fluoro-3-(1-(2-(piperidin-1-yl)ethyl)-1H-pyrazol-4-yl)-1H-indazole] | 10 to 100 nM | > 100 nM | 1 to 10 nM | 1 to 10 nM | B (B represents 20 ≤ multiple X<50) | A (A represents 1 ≤ multiple X<20) | D (D represents 100 ≤ multiple X) | – | – | – | – |
| C[C@@H](Oc1cc(F)c2[nH]nc(-c3cnn(CCN4CCS(=O)(=O)CC4)c3)c2c1)c1c(Cl)cncc1Cl [Example 24, (R)-4-(2-(4-(5-(1-(3,5-dichloropyridin-4-yl)ethoxy)-7-fluoro-1H-indazol-3-yl)-1H-pyrazol-1-yl)ethyl)thiomo rpholine 1,1-dioxide] | 10 to 100 nM | 10 to 100 nM | 1 to 10 nM | < 1 nM | A (A represents 1 ≤ multiple X<20) | A (A represents 1 ≤ multiple X<20) | C (C represents 50 ≤ multiple X<100) | – | – | – | – |
| Cc1cc(O[C@H](C)c2c(Cl)cncc2Cl)cc2c(-c3cnn(CCN4CCOCC4)c3)n[nH]c12 [Example 27, (R)-4-(2-(4-(5-(1-(3,5-dichloropyridin-4-yl)ethoxy)-7-methyl-1H-indazol-3-yl)-1H-pyrazol-1-yl)ethyl)morpholine] | > 100 nM | > 100 nM | 10 to 100 nM | 1 to 10 nM | B (B represents 20 ≤ multiple X<50) | A (A represents 1 ≤ multiple X<20) | C (C represents 50 ≤ multiple X<100) | – | – | – | – |
| C[C@@H](Oc1ccc2[nH]nc(-c3cnn(Cc4cccnc4)c3)c2n1)c1c(Cl)cncc1Cl [Example 28, (R)-5-(1-(3,5-dichloropyridin-4-yl)ethoxy)-3-(1-(pyridin-3-ylmethyl)-1H-pyrazol-4-yl)-1H-pyrazolo[4,3-b]pyridine] | – | – | – | – | A (A represents 1 ≤ multiple X<20) | A (A represents 1 ≤ multiple X<20) | A (A represents 1 ≤ multiple X<20) | 1 to 10 nM | 1 to 10 nM | < 1 nM | < 1 nM |
| C[C@@H](Oc1ccc2[nH]nc(-c3cnn(CCN4CCOCC4)c3)c2n1)c1c(Cl)cncc1Cl [Example 31, (R)-4-(2-(4-(5-(1-(3,5-dichloropyridin-4-yl)ethoxy)-1H-pyrazolo[4,3-b]pyridin-3-yl)-1H-pyrazol-1-yl)ethyl)morpholine] | – | – | – | – | B (B represents 20 ≤ multiple X<50) | A (A represents 1 ≤ multiple X<20) | B (B represents 20 ≤ multiple X<50) | 1 to 10 nM | 10 to 100 nM | < 1 nM | < 1 nM |
| C[C@@H](Oc1ccc2[nH]nc(-c3cnn(C4CCN(C(=O)CO)C4)c3)c2n1)c1c(Cl)cncc1Cl (stereo partly drawn) [Example 59, 1-(3-(4-(5-((R)-1-(3,5-dichloropyridin-4-yl)ethoxy)-1H-pyrazolo[4,3-b]pyridin-3-yl)-1H-pyrazol-1-yl)pyrrolidin-1-yl)-2-hydroxyethan-1-one] | 1 to 10 nM | 10 to 100 nM | < 1 nM | < 1 nM | A (A represents 1 ≤ multiple X<20) | A (A represents 1 ≤ multiple X<20) | B (B represents 20 ≤ multiple X<50) | – | – | – | – |

From patent EP4644383A1 (Jiangsu Yahong Meditech Co., Ltd., priority 2022, dated 2024)
